Test results reported in article PMC8119466, “A screen of FDA-approved drugs identifies inhibitors of protein tyrosine phosphatase 4A3 (PTP4A3 or PRL-3)” (Scientific Reports, 2021).
Where a name gives a salt, the structure may show the parent alone.

Legend:
Assay type in all cases: biochemical
Settings in all cases: FDA-approved drug screen; compared to DMSO
[1] = molecular target: T1, recombinant PRL-3 (Homo sapiens, UniProt O75365); test: In vitro phosphatase assay (DiFMUP hydrolysis), PRL-3; further: test concentration or dose not given here
T1 construct: 6xHis (N, cleaved yes); made in house; host or cells: E. coli One Shot BL21 Star

[2] = molecular target: T2, recombinant PRL-2 (Homo sapiens, UniProt Q12974); test: In vitro phosphatase assay (DiFMUP hydrolysis), PRL-2;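 further: PRL-2 activity read as DiFMUP hydrolysis after 20 min at room temperature with drug, enzyme first pre-reduced at 4 °C for 20 min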
T2 construct: 6xHis (N, cleaved yes); made in house; host or cells: E. coli One Shot BL21 Star
T2 sequence (Q12974 1-167): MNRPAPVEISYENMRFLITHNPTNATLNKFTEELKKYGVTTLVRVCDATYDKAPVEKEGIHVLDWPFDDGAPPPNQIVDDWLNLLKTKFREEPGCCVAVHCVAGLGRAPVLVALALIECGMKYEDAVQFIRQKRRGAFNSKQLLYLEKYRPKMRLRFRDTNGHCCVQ

[3] = molecular target: T3, recombinant PRL-1 (Homo sapiens, UniProt Q93096); test: In vitro phosphatase assay (DiFMUP hydrolysis), PRL-1; further: test concentration or dose not given here
T3 construct: 6xHis (N, cleaved yes); made in house; host or cells: E. coli One Shot BL21 Star
T3 sequence (Q93096 1-173): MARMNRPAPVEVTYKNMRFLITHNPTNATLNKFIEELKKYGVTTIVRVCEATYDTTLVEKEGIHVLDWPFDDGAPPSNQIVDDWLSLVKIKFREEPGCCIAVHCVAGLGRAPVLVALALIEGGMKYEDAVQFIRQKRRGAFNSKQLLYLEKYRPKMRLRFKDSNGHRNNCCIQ

T1 sequence (O75365 whole entry): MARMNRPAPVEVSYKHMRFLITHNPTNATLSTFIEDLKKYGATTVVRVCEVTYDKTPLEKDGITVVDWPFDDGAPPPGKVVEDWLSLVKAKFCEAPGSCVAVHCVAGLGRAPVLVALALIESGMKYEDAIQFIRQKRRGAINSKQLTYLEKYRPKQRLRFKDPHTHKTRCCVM

| SMILES | % Phosphatase Activity (compared to DMSO) PRL-3 [1] | % Phosphatase Activity (compared to DMSO) PRL-2 [2] | % Phosphatase Activity (compared to DMSO) PRL-1 [3] |
| --- | --- | --- | --- |
| O=C(Nc1ccccc1)OCC(CN1CCCCC1)OC(=O)Nc1ccccc1 (stereo not drawn) [Diperodon HCl] | 103% | 98% | 99% |
| CN(C)CCOC(c1ccccc1)c1ccccc1 [Diphenhydramine HCl] | 111% | 108% | 113% |
| OC(CCCN1CCCCC1)(c1ccccc1)c1ccccc1 [Diphenidol HCl] | 89% | 115% | 102% |
| CN1CCC(OC(c2ccccc2)c2ccccc2)CC1 [Diphenylpyraline HCl] | 98% | 100% | 97% |
| OCCN(CCO)c1nc(N2CCCCC2)c2nc(N(CCO)CCO)nc(N3CCCCC3)c2n1 [Dipyridamole] | 219% | 258% | 182% |
| CC[C@H]1OC(=O)[C@H](C)[C@@H](O[C@H]2C[C@@](C)(OC)[C@@H](O)[C@H](C)O2)[C@H](C)[C@@H](O[C@@H]2O[C@H](C)C[C@H](N(C)C)[C@H]2O)[C@](C)(O)C[C@@H](C)[C@@H]2N[C@@H](COCCOC)O[C@H]([C@H]2C)[C@]1(C)O [Dirithromycin] | 74% | 94% | 90% |
| O=C([O-])c1cc(=O)c2c(OCC(O)COc3cccc4oc(C(=O)[O-])cc(=O)c34)cccc2o1.[Na+].[Na+] [Disodium Cromoglycate] | 93% | 78% | 93% |
| CC(C)N(CCC(C(N)=O)(c1ccccc1)c1ccccn1)C(C)C (stereo not drawn) [Disopyramide Phosphate] | 93% | 107% | 94% |
| CCN(CC)C(=S)SSC(=S)N(CC)CC [Disulfiram] | 78% | 100% | 103% |
| CCCC(CCC)C(=O)O [Divalproex Sodium] | 77% | 94% | 105% |
| CC(=O)O[C@@]12CO[C@@H]1C[C@H](O)[C@@]1(C)C(=O)[C@H](O)C3=C(C)[C@@H](OC(=O)[C@H](O)[C@@H](NC(=O)OC(C)(C)C)c4ccccc4)C[C@@](O)([C@@H](OC(=O)c4ccccc4)[C@H]21)C3(C)C [Docetaxel Trihydrate] | 90% | 87% | 93% |
| CC(=O)O[C@@]12CO[C@@H]1C[C@H](O)[C@@]1(C)C(=O)[C@H](O)C3=C(C)[C@@H](OC(=O)[C@H](O)[C@@H](NC(=O)OC(C)(C)C)c4ccccc4)C[C@@](O)([C@@H](OC(=O)c4ccccc4)[C@H]21)C3(C)C [Docetaxel] | 65% | 88% | 87% |
